The assay has as its target T1, hCRTH2 (Homo sapiens, UniProt Q9Y5Y4).
T1 construct: expressed in transfected cells; host or cells: HEK (human embryonic kidney) cells expressing hCRTH2; membrane preparation
T1 sequence (Q9Y5Y4 1-395): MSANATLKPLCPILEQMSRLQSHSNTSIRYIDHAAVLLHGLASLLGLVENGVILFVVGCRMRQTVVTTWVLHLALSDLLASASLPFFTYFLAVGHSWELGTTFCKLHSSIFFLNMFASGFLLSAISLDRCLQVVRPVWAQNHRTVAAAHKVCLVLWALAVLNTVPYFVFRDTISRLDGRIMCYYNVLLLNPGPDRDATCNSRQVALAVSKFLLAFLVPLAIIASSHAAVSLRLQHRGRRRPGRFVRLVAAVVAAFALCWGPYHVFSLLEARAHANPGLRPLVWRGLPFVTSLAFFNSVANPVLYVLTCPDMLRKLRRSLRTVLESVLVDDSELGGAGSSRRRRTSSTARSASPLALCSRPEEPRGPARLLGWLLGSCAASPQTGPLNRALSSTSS
Nature of the assay: Radioligand binding assay ([3H]PGD2 competition, HEK-hCRTH2 membranes). As to conditions: [3H]PGD2 competition, Table B. In a few lines: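 Displacement of 3.0 nM [3H]PGD2 from human CRTH2 expressed in HEK membranes was measured at room temperature over 60 min. Unlabelled PGD2 at 10 μM gave non-specific binding.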

pKi: −log10 of the molar value.

The molecule `C[C@H](NC(=O)c1ccc2nc(-c3ccc(Cl)cc3)c(CCCCC(=O)O)nc2c1)c1cccc2ncccc12` [compound 322, (S)-5-(3-(4-chlorophenyl)-7-((1-(quinolin-5-yl)ethyl)carbamoyl)quinoxalin-2-yl)pentanoic acid] gave a pKi of 7.70 to 8.68. The value for `O=C(O)CCCCc1nc2cc(C(=O)N3CC(OCc4ccccc4)C3)ccc2nc1-c1ccc(Cl)cc1` [compound 323, 5-(7-(3-(benzyloxy)azetidine-1-carbonyl)-3-(4-chlorophenyl)quinoxalin-2-yl)pentanoic acid] was 7.70 to 8.68. The value for `O=C(O)CCCCc1nc2cc(C(=O)N3CC(n4cccn4)C3)ccc2nc1-c1ccc(Cl)cc1` [compound 324, 5-(7-(3-(1H-pyrazol-1-yl)azetidine-1-carbonyl)-3-(4-chlorophenyl)quinoxalin-2-yl)pentanoic acid] was 7.70 to 8.68; that for `O=C(O)CCCCc1nc2cc(C(=O)N3CC(n4ccnc4)C3)ccc2nc1-c1ccc(Cl)cc1` [compound 325, 5-(7-(3-(1H-imidazol-1-yl)azetidine-1-carbonyl)-3-(4-chlorophenyl)quinoxalin-2-yl)pentanoic acid] was 6.70 to 7.70; that for `O=C(O)CCCCc1nc2cc(C(=O)N3CC(c4nc(-c5ccncc5)no4)C3)ccc2nc1-c1ccc(Cl)cc1` [compound 326, 5-(3-(4-chlorophenyl)-7-(3-(3-(pyridin-4-yl)-1,2,4-oxadiazol-5-yl)azetidine-1-carbonyl)quinoxalin-2-yl)pentanoic acid] was 7.70 to 8.68. The value for `O=C(O)CCCCc1nc2cc(C(=O)N3CC(n4cnnc4)C3)ccc2nc1-c1ccc(Cl)cc1` [compound 327, 5-(7-(3-(4H-1,2,4-triazol-4-yl)azetidine-l-carbonyl)-3-(4-chlorophenyl)quinoxalin-2-yl)pentanoic acid] was 6.70 to 7.70; that for `O=C(O)CCCCc1nc2cc(C(=O)N3CC(F)(c4ccccc4)C3)ccc2nc1-c1ccc(Cl)cc1` [compound 328, 5-(3-(4-chlorophenyl)-7-(3-fluoro-3-phenylazetidine-1-carbonyl)quinoxalin-2-yl)pentanoic acid] was 7.70 to 8.68. With `O=C(O)CCCCc1nc2cc(C(=O)N3CC(Oc4ccccn4)C3)ccc2nc1-c1ccc(Cl)cc1` [compound 329, 5-(3-(4-chlorophenyl)-7-(3-(pyridin-2-yloxy)azetidine-1-carbonyl)quinoxalin-2-yl)pentanoic acid], the pKi is 7.70 to 8.68.

As for `CN(C)c1cccc(-c2nc3ccc(C(=O)N[C@@H]4CCCc5ccccc54)cc3nc2CCCCC(=O)O)c1` [compound 330, (R)-5-(3-(3-(dimethylamino)phenyl)-7-((1,2,3,4-tetrahydronaphthalen-1-yl)carbamoyl)quinoxalin-2-yl)pentanoic acid], the pKi is 7.70 to 8.68. Molecule `O=C(O)CCCCc1nc2cc(C(=O)NC3CSc4ccccc43)ccc2nc1-c1ccc(Cl)cc1` (stereo not drawn) [compound 331, 5-(3-(4-chlorophenyl)-7-((2,3-dihydrobenzo[b]thiophen-3-yl)carbamoyl)quinoxalin-2-yl)pentanoic acid] gave a pKi of 7.70 to 8.68. Regarding `N#Cc1ccc2c(c1)OCC[C@H]2NC(=O)c1ccc2nc(-c3ccc(Cl)cc3)c(CCCCC(=O)O)nc2c1` [compound 332, (R)-5-(3-(4-chlorophenyl)-7-((7-cyanochroman-4-yl)carbamoyl)quinoxalin-2-yl)pentanoic acid], the pKi was 7.70 to 8.68. `N#Cc1ccc2c(c1)OCC[C@@H]2NC(=O)c1ccc2nc(-c3ccc(Cl)cc3)c(CCCCC(=O)O)nc2c1` [compound 333, (S)-5-(3-(4-chlorophenyl)-7-((7-cyanochroman-4-yl)carbamoyl)quinoxalin-2-yl)pentanoic acid.]: the pKi is 7.70 to 8.68.

`O=C(O)CCCCc1nc2cc(C(=O)N[C@@H]3CCOc4cc(Cl)ccc43)ccc2nc1-c1ccc(Cl)cc1` [compound 334, (R)-5-(7-((7-chlorochroman-4-yl)carbamoyl)-3-(4-chlorophenyl)quinoxalin-2-yl)pentanoic acid]: the pKi was 7.70 to 8.68. In turn, `O=C(O)CCCCc1nc2cc(C(=O)N[C@H]3CCOc4cc(Cl)ccc43)ccc2nc1-c1ccc(Cl)cc1` [compound 335, (S)-5-(7-((7-chlorochroman-4-yl)carbamoyl)-3-(4-chlorophenyl)quinoxalin-2-yl)pentanoic acid] gave a pKi of 7.70 to 8.68. Molecule `CN(C(=O)c1ccc2nc(-c3ccc(Cl)cc3)c(CCCCC(=O)O)nc2c1)C1NC(=O)c2ccccc21` (stereo not drawn) [compound 336, 5-(3-(4-chlorophenyl)-7-(methyl(3-oxoisoindolin-1-yl)carbamoyl)quinoxalin-2-yl)pentanoic acid] gave a pKi of 6.70 to 7.70. The value for `O=C(O)CCCCc1nc2cc(C(=O)N3CCC(N4CCCCC4)CC3)ccc2nc1-c1ccc(Cl)cc1` [compound 337, 5-(7-([1,4′-bipiperidine]-1′-carbonyl)-3 (4-chlorophenyl)quinoxalin-2-yl)pentanoic acid] was 6.70 to 7.70; that for `O=C(O)CCCCc1nc2cc(C(=O)N3CCC(n4ccc5ccccc54)CC3)ccc2nc1-c1ccc(Cl)cc1` [compound 338, 5-(7-(4-(1H-indol-1-yl)piperidine-l-carbonyl)-3-(4-chlorophenyl)quinoxalin-2-yl)pentanoic acid] was 7.70 to 8.68; that for `O=C(O)CCCCc1nc2cc(C(=O)N3CCC(N4CCCC4)CC3)ccc2nc1-c1ccc(Cl)cc1` [compound 339, 5-(3-(4-chlorophenyl)-7-(4-(pyrrolidin-1-yl)piperidine-1-carbonyl)quinoxalin-2-yl)pentanoic acid] was 6.70 to 7.70. Turning to `O=C(O)CCCCc1nc2cc(C(=O)N3CCC4(CCOC4)CC3)ccc2nc1-c1ccc(Cl)cc1` [compound 340, 5-(3-(4-chlorophenyl)-7-(2-oxa-8-azaspiro[4.5]decane-8-carbonyl)quinoxalin-2-yl)pentanoic acid], the pKi was 7.70 to 8.68. `O=C(O)CCCCc1nc2cc(C(=O)N3CCC(n4cncn4)CC3)ccc2nc1-c1ccc(Cl)cc1` [compound 341, 5-(7-(4-(1H-1,2,4-triazol-yl)piperidine-1-carbonyl)-3-(4-chlorophenyl)quinoxalin-2-yl)pentanoic acid] showed a pKi of 7.70 to 8.68. For `O=C(O)CCCCc1nc2cc(C(=O)N3CCC(n4cccn4)CC3)ccc2nc1-c1ccc(Cl)cc1` [compound 342, 5-(7-(4-(1H-pyrazol-1-yl)piperidine-1-carbonyl)-3-(4-chlorophenyl)quinoxalin-2-yl)pentanoic acid] the value was 7.70 to 8.68; for `O=C(O)CCCCc1nc2cc(C(=O)N3CCC4(CC3)COc3ccccc34)ccc2nc1-c1ccc(Cl)cc1` [compound 343, 5-(3--(4-chlorophenyl)-7-(2H-spiro[benzofuran-3,4′-piperidin]-1′-ylcarbonyl)quinoxalin-2-yl)pentanoic acid], 7.70 to 8.68. For `O=C(O)CCCCc1nc2cc(C(=O)N3CCC4(CC3)NC(=O)c3ccccc3O4)ccc2nc1-c1ccc(Cl)cc1` [compound 344, 5-(3-(4-chlorophenyl)-7-(4-oxo-3,4-dihydrospiro[benzo[e][1,3]oxazine-2,4′-piperidin]-1′-ylcarbonyl)quinoxalin-2-yl)pentanoic acid] the value was 7.70 to 8.68; for `O=C(O)CCCCc1nc2cc(C(=O)N3CC4CCCC(C3)C4c3ccccc3)ccc2nc1-c1ccc(Cl)cc1` [compound 345, 5-(3-(4-chlorophenyl)-7-((1R,5S,9r)-9-phenyl-3-azabicyclo[3.3.1]nonane-3-carbonyl)quinoxa1in-2-yl)pentanoic acid], 7.70 to 8.68; for `Cn1cnc(C2CCN(C(=O)c3ccc4nc(-c5ccc(Cl)cc5)c(CCCCC(=O)O)nc4c3)CC2)c1` [compound 346, 5-(3-(4-chlorophenyl)-7-(4-(1-methyl-1H-imidazol-4-yl)piperidine-1-carbonyl)quinoxalin-2-yl)pentanoic acid], 7.70 to 8.68. With `O=C(O)CCCCc1nc2cc(C(=O)N3CCc4oc(C5CC5)nc4C3)ccc2nc1-c1ccc(Cl)cc1` [compound 347, 5-(3-(4-chlorophenyl)-7-(2-cyclopropyl-4,5,6,7-tetrahydrooxazolo[4,5-c]pyridine-5-carbonyl)quinoxalin-2-yl)pentanoic acid], the pKi was 6.70 to 7.70. Turning to `O=C(O)CCCCc1nc2cc(C(=O)N3CCC(n4ncc5ccccc54)CC3)ccc2nc1-c1ccc(Cl)cc1` [compound 348, 5-(7-(4-(1H-indazol-1-yl)piperidine-1-carbonyl)-3-(4-chlorophenyl)quinoxalin-2-yl)pentanoic acid], the pKi was 7.70 to 8.68. For `CN1CC2(CCN(C(=O)c3ccc4nc(-c5ccc(Cl)cc5)c(CCCCC(=O)O)nc4c3)CC2)CC1=O` [compound 349, 5-(3-(4-chlorophenyl)-7-(2-methyl-3-oxo-2,8-diazaspiro[4.5]decane-8-carbonyl)quinoxalin-2-yl)pentanoic acid] the value was 6.70 to 7.70. Regarding `O=C(O)CCCCc1nc2cc(C(=O)N3CCN(c4ccccc4)C(=O)C3)ccc2nc1-c1ccccc1` [compound 350, 5-(7-(3-oxo-4-phenylpiperazine-1-carbonyl)-3-phenylquinoxalin-2-yl)pentanoic acid], the pKi was 6.70 to 7.70. With `O=C(O)CCCCc1nc2cc(C(=O)N3CCN(c4ccc(F)cc4)CC3)ccc2nc1-c1ccccc1` [compound 351, 5-(7-(4-(4-fluorophenyl)piperazine-1-carbonyl)-3-phenylquinoxalin-2-yl)pentanoic acid], the pKi was 7.70 to 8.68.

(Values after patent US9469615B2, “Quinoxalines and AZA-quinoxalines as CRTH2 receptor modulators” (Merck Sharp & Dohme Corp., priority 2010, dated 2016).)
